Test results taken from patent US20030044413A1, “Methods of limiting apoptosis of cells” (Regents of the University of Minnesota, priority 1998, published 2003).
Like-named read-outs stand apart in the source and are kept apart here.

Columns and labels:
[1] = system: HuH-7 cells; assay: DCA-induced apoptosis, Hoechst staining, HuH-7 cells; type: cell-based; details: for percent of apoptotic cells: 6 h
Excerpt: Cell culture and preparation of rat primary hepatocytes. Rat primary hepatocytes were isolated from male Sprague-Dawley rats (200-250 g) by collagenase perfusion as described previously (Mariash et al., J. Biol. Chem, 261, 9583-9586 (1986)). Briefly, rats were aneshtesized with phenobarbitol and the livers were perfused with 0.05% collagenase. Hepatocyte suspensions were obained by passing digested livers through 0.125 mm gauze and washing cells in modified Eagles' medium (MEM, Life Technologies, Inc., Grand Island, N.Y.). […] After isolation, hepatocytes were resuspended in William's E medium (Life Technologies, Inc., Grand Island, N.Y.) supplemented with 26 mM sodium bicarbonate, 23 mM HEPES, 0.01 U/ml insulin, 2 mM L-glutamine, 10 nM dexamethasone, 5.5 mM glucose, 100 U/ml penicillin and 100 U/ml streptomycin and then 1.0×10^6 cells were plated on 35×10 mm […] tissue culture dishes (Becton Dickinson Labware, Lincoln Park, N.J.). The cells were maintained at 37° C. in a humidified atmosphere of 5% CO2 for 3 h. Plates were then washed with medium to remove dead cells, and medium containing 10% heat-inactivated FBS (55° C. for 30 min) was added (Atlanta Biologicals, Inc., Norcross, Ga.). Aliquots of 1.0×10^5 human (HuH-7) hepatoma cells were plated on 35×10 mm tissue culture dishes (Becton Dickinson Labware) and maintained at 37° C. in Dulbecco's MEM (Atlanta Biologicals, Inc.) supplemented with 10% FBS, 100 U/ml penicillin and 100 u/ml streptomycin for 3 h prior to incubation with bile acids.
Incubation of cells with bile acids. Freshly isolated rat hepatocytes were cultured for 3 h as described above and then incubated with William's E medium supplemented with either 50 μM DCA, 50 μM UDCA (Sigma Chemical Co., St. Louis, Mo.), their combination, or no bile acid (control), for 2 h, 4 h, and 6 h. HuH-7 cells cultured for 3 h as described above were incubated with Dulbecco's MEM medium supplemented with either 50 μM, 100 μM, 500 μM, or 1000 μM DCA, UDCA, DCA+UDCA, or no addition (control) for 6 h and 24 h. The medium was gently removed at the indicated time points and scored for nonviable cells by trypan blue dye exclusion. The attached cells were fixed for morphologic assessment of apoptotic changes.
Morphological evaluation of apoptosis. Morphology was performed as described previously (Oberhammer et al., Proc. Natl. Acad. Sci. USA 89, 5408-5412 (1992)). Briefly, after fixation (with 4% formaldehyde in PBS, pH 7.4, for 10 min at room temperature), the cells were incubated with Hoechst dye 33258 (Sigma Chemical Co.) at 5 μg/ml in PBS for 5 min, washed with PBS and mounted with PBS:glycerol (3:1, v/v). Fluorescence was visualized with a Zeiss standard fluorescence microscope (Carl Zeiss, Inc., Thornwood, N.Y.). Photographs were taken with Kodak Ektar-1000 film (Eastman Kodak Co.). Stained nuclei were scored by blind analysis and categorized according to the condensation and staining characteristics of chromatin. Normal nuclei were identified as noncondensed chromatin dispersed over the entire nucleus. Apoptotic nuclei were identified by condensed chromatin, contiguous to the nuclear membrane, as well as nuclear fragmentation of condensed chromatin. Three fields per dish of approximately 500 nuclei were counted; mean values are expressed as the percent of apoptotic nuclei.

[2] = system: rat primary hepatocytes; assay: FACS analysis of ΔΨm and ROS, rat primary hepatocytes; type: cell-based; details: for Peroxides Production (%) Inducer + UDCA: 100 μM UDCA pretreatment 60 min; for inhibition at 100 µM: Rattus norvegicus, Hepatocyte, 100 μM UDCA, read-out: % Inhibition of peroxides production; for Inhibition % Superoxide Anion / Inhibition % _Ψm: inhibition by UDCA
Description: A ΔΨm and ROS measurement. ΔΨm and ROS production were measured by FACScan (Becton Dickinson) analysis. Freshly isolated rat hepatocytes were cultured for 3 h as described above and then incubated with William's E medium supplemented with either 100 μM DCA, 100 μM UDCA, equal molar amounts of both, or no bile acid (control), for 6 h. Rat hepatocytes were also cultured with either 1% ethanol, 100 μM UDCA, ethanol+UDCA, or no addition (control) for 4 h. HuH-7 cells, Hep G2 cells, and human osteogenic sarcoma Saos-2 cells were incubated with TGF-β1, anti-Fas antibody or okadaic acid, respectively, for 48 h under the same conditions as outlined above. For combination studies, cells were pretreated with UDCA or hyodeoxycholic acid for 60 min prior to addition of DCA, ethanol, TGF-β1, anti-Fas antibody or okadaic acid. Aliquots of 1.0×10^6 cells were incubated for 15 min at 37° C. with 50 nM 3,3′-dihexyloxacarbocyanine iodide [DiOC6(3)], 2 μM dihydroethidium (HE), or 5 μM 2′,7′-dichlorofluorescin diacetate (H2DCFDA; Molecular Probes, Inc. Eugene, Oreg.) and analyzed by cytofluorometry (Cathcart et al., Anal. Biochem., 134, 111-116 (1983); Zamzami et al., J. Exp. Med., 181, 1661-1672 (1 995); Carter et al., J. Leukocyte Biol., 55, 253-258 (1994)).
Rat primary hepatocytes were incubated with 100 μM DCA and 1% ETOH for 6 h and 4 h, respectively; HuH-7 cells with 1 nM TGF-β1 for 48 h; Hep G2 cells with 0.5 μg/ml anti-Fas antibody (CH-11) for 48 h, and Saos-2 cells with 50 nM okadaic acid (OA) for 48 h. In each combination group, cells were pretreated with 100 μM UDCA alone for 60 min prior to addition of the inducer. Aliquots of 1.0×10^6 cells were incubated for 15 min at 37° C. with 5 μM 2′,7′-dichlorofluorescin diacetate (H2DCFDA) and analyzed by cytofluorometry.

[3] = system: Cos-7 cells; assay: Okadaic acid-induced apoptosis, Cos-7 cells; type: cell-based, monkey
Description: HuH-7 cells were treated with 1 nM TGF-β1, 100 μM of either hyodeoxycholic acid, taurocholic acid, tauroursodeoxycholic acid (Sigma Chemical Co.) or glycoursodeoxycholic acid (Steraloids Inc., Wilton, N.H.), or a combination of TGF-β1 plus the individual bile acids for 72 h. HeLa and Cos-7 cells were incubated with 50 nM okadaic acid, 100 μM of either tauroursodeoxycholic acid or glycoursodeoxycholic acid, or a combination of okadaic acid plus the individual bile acids for 24 h. In the combination groups, cells were pretreated with the bile acid alone for 60 min prior to incuation with TGF-β1 or okadaic acid. In all studies, the medium was gently removed at the indicated times and scored for nonviable cells. The attached cells were fixed for morphologic evaluation of apoptosis.
Morphological evaluation of apoptosis. Morphology was performed as described previously (Oberhammer et al., Proc. Natl. Acad. Sci. USA 89, 5408-5412 (1992)). […] Fluorescence was visualized with a Zeiss standard fluorescence microscope (Carl Zeiss, Inc., Thornwood, N.Y.). […] Stained nuclei were scored by blind analysis and categorized according to the condensation and staining characteristics of chromatin. […] Three fields per dish of approximately 500 nuclei were counted; mean values are expressed as the percent of apoptotic nuclei.

[4] = system: cytochrome c; assay: Cytochrome c release from isolated mitochondria after MPT; parameters: species or system rat; details: substance alone on isolated mitochondria
Description: Mitochondria isolation. […] In short, animals were sacrificed by exsanguination under ether anesthesia and the livers removed and rinsed in normal saline. Approximately 10 g of minced liver was homogenized at a speed of 800 rpm using 6 complete up and down strokes with a speed controlled mechanical skill drill and a teflon pestle (Tri-R Model K41, Tri-R Instruments, Rockville Center, N.Y.) in an ice-cold solution of 70 mM sucrose, 220 mM mannitol, 1 mM EGTA and 10 mM HEPES, pH 7.4 as a 10% (wt/vol) homogenate. The homogenate was centrifuged at 600×g for 10 min at 4° C. in an SS-34 rotor in a Sorvall RC5C centrifuge (Sorvall Instruments, Newtown, Conn.), and the postnuclear supernatant was centrifuged at 7,000×g for 10 min at 4° C. […] The pellet was resuspended in 2 mL of homogenate buffer, and 1 mL of the resuspended pellet was carefully layered onto a 35-mL self-generating gradient containing 0.25 M sucrose, 1 mM EGTA and percoll (Pharmacia Fine Chemicals, Piscataway, N.J.) (75:25, vol/vol). The mitochondria were purified by centrifugation at 43,000×g for 30 min at 4° C. using a Beckman Ti60 rotor and a Beckman ultracentrifuge model L8-55 (Beckman Instruments, Inc., Schaumburg, Ill.). The clear supernatant solution removed and the lower turbid layer was resuspended in 30 mL of wash buffer containing 0.1 M KCl, 5 mM 3-(N-morpholino)-propane sulfonic acid (MOPS), and 1 mM EGTA, at pH 7.4 and centrifuged at 7,000×g for 10 min at 4° C. The resulting mitochondria pellet was washed in wash buffer two times. A final wash was carried out in chelex-100-treated buffer (Bio-Rad Laboratories, Richmond, Va.; 200-400 mesh, potassium form) without EGTA. The pellet was suspended in 4 mL of chelex-100-treated resuspension buffer containing 125 mM sucrose, 50 mM KCl, 5 mM HEPES, and 2 mM KH2PO4. The usual yield of mitochondria was approximately 25 mg of protein per gram of liver tissue. Mitochondria were used for experiments within 3 h of isolation. Aliquots were removed for examining the purity of the mitochondria preparation.
Measurement of MPT and determination of cytochrome c content in supernatants and mitochondrial pellets after MPT. The MPT was assessed using a spectrophotometric assay measuring high amplitude rapid changes in mitochondria volume. Mitochondria (1 mg protein) were incubated in 1 ml of chelex-100-treated respiration buffer (0.1 M NaCl, 10 mM MOPS, pH 7.4) for 10 min at 25° C. and swelling was monitored at 540 nm in a Beckman DU 64 spectrophotometer. […] Basal values of mitochondria absorbance were measured for 5 min, and the optical density was monitored for an additional 5 min after addition 200 μM DCA or 80 μM phenylarsine oxide (PhAsO; Sigma Chemical Co.). […]

Compound: C[C@H](CCC(=O)O)[C@H]1CC[C@H]2[C@@H]3CC[C@@H]4C[C@H](O)CC[C@]4(C)[C@H]3C[C@H](O)[C@]12C [DCA, deoxycholic acid]
- percent of apoptotic cells ([1]; 100 μM DCA): 16.8%
- apoptotic cells ([1]; 100 μM DCA, 24 h): 20±2.8%
- percent of apoptotic cells ([1]; 1000 μM DCA): 66.7%
- necrosis ([1]; elevated bile acid concentrations (up to 1000 μM DCA)): no apparent necrosis
- Peroxides Production (%) Inducer ([2]; 100 μM DCA, 6 h, hepatocytes): 12.8 ± 0.9%

Compound: C[C@H](CCC(=O)O)[C@H]1CC[C@H]2[C@@H]3[C@@H](O)C[C@@H]4C[C@H](O)CC[C@]4(C)[C@H]3CC[C@]12C [UDCA, ursodeoxycholic acid]
- apoptotic cells ([1]; 100 μM DCA + UDCA combination, 24 h): 11.5±2.1%
- increase in cell viability by coincubation with UDCA ([1]; DCA + UDCA, 24 h): 44±7.1%
- percent apoptosis ([3]; okadaic acid + UDCA): 7.3±2.4%
- Peroxides Production (%) Inducer + UDCA ([2]; 100 μM DCA 6 h): 4.4 ± 1.5 %
- Peroxides Production (%) Inducer + UDCA ([2]; 1% ETOH 4 h): 10.7 ± 3.6 %
- inhibition at 100 µM ([2]; inducer DCA, hepatocytes): 65.8 ± 12.4%
- inhibition at 100 µM ([2]; inducer ETOH, hepatocytes): 39.5 ± 12.6%
- Inhibition % Superoxide Anion ([2]; inducer DCA, hepatocytes): 93.5 ± 17.2%
- Inhibition % _Ψm ([2]; inducer DCA, hepatocytes): 60.2 ± 6.1 %
- Inhibition % Superoxide Anion ([2]; inducer ETOH, hepatocytes): 86.6 ± 5.6%
- Inhibition % _Ψm ([2]; inducer ETOH, hepatocytes): 61.7 ± 33.9%

Compound: C=C1[C@@H](O)[C@@H]2O[C@]3(CC[C@H](/C=C/[C@@H](C)[C@@H]4CC(C)=C[C@@]5(O[C@H](C[C@@](C)(O)C(=O)O)CC[C@H]5O)O4)O3)CC[C@H]2O[C@@H]1[C@@H](O)C[C@H](C)[C@H]1O[C@@]2(CCCCO2)CC[C@H]1C [okadaic acid]
- translocation of cytochrome c to the supernatants [4]: nor did they cause translocation of cytochrome c
- percent apoptosis ([3]; okadaic acid alone): 21.4±2.9%

Compound: TGF-β1: transforming growth factor β1, nonmembrane damaging inducer of apoptosis
- translocation of cytochrome c to the supernatants [4]: nor did they cause translocation of cytochrome c
